According to patent US20020025929A1, “METHOD OF BUILDING AND MAINTAINING BONE” (priority 1997, published 2002):

System: ovariectomized rats
Assay: Uterine wet weight of ovariectomized rats
Type: in vivo, Sprague-Dawley female rats
Conditions: OVX rats; compound 1a 0.003-3 mg/kg; 17α-ethynyl estradiol 0.1 mg/kg
Method: Following treatment with the test compounds, the rats were anesthetized and subjected to cardiac puncture and euthanized by CO2 inhalation. Uteri were removed and wet weight were determined on a Mettler balance to evaluate ovariectomy and efficacy of treatment with estrogen. Blood samples were allowed to clot at 4° C. for 2 hr before centrifugation at 2,000 g for 10 min. Serum were collected and stored at −70° C. before analysis. Serum cholesterol was assayed using a high performance calorimetric assay (Boehringer Mannheim Biochemicals, Indianapolis, Ind.). Tibia and femora were removed, cleaned of soft-tissue, fixed in 50% ethanol/ saline, and stored at 4° C. Vertebra L1-6 were removed and analyzed by QCT, histomorphometry, and biomechanics.
In the first study, six-month old virgin Sprague-Dawley female rats weighing about 300 g each were maintained on a 12 hr light/12 hr dark cycle at 22° C. with ad lib access to food (TD 89222 diet containing 0.5% calcium and 0.4% phosphorus, Teklad, Madison, Wis., USA), Except for sham-operated control animals, bilateral ovariectomies were performed on the test animals. In the case of the sham-operated animals, the surgical ovariectomization technique was followed, but the ovaries were left intact to provide a control for assessing any effect which might be due to the surgical trauma. […]

SMILES: C#C[C@]1(O)CC[C@H]2[C@@H]3CCc4cc(O)ccc4[C@H]3CC[C@@]21C [EE2, 17α-ethynyl estradiol]
- uterine wet weight: increased uterine weight above OVX to Sham levels
